The values that follow come from patent US20240051942A1, “SOLID FORM OF COMPOUND” (INXMED (NANJING) CO., LTD., priority 2020, published 2024).

Values after ≈ are worked out from the molar mass of the structure shown. Structures can show the parent of a compound that is named as a salt. Where only a bound is given, the exact number is not on record here.

Holding throughout (format): physicochemical
Series [1] can be described thus: Suspension competitive crystal transformation test of crystalline forms I and III of the tartrate salt (XRPD). Particulars: for Crystalline form after suspension competition: 24 h. The procedure:
Crystalline form I and crystalline form III (each 20 mg) were weighed and added into a 2 mL or 10 mL glass bottle, and 0.5 mL or 1 mL of organic solvent was added, respectively, according to the solubility. Two batches were prepared with the same solvent, and placed respectively at room temperature and 50° C. for suspension competition for 24 h. The suspension was centrifuged (10000 rpm, 3 min). The obtained solid powder was then vacuum-dried and tested for XRPD (See FIGS. 30 and 31 for details).

A short description of series [2]: Stability under pressure condition (powder tablet press, XRPD). Particulars: mechanical pressures of 2, 4, 6, 8, and 10 N, 5 minutes. The procedure: An appropriate amount of powders of crystalline form A of the free base, crystalline form I of the tartrate salt, and crystalline form III of the tartrate salt were weighed and evenly spread on the bottom of the mold of a powder tablet press. To simulate the pressure conditions in a formulation process, mechanical pressures of 2, 4, 6, 8, and 10 N were applied respectively. The pressure was kept stable for 5 minutes, and then samples were taken for XRPD to investigate the stability of the crystalline form under pressure conditions. For details of patterns, see FIGS. 24-26.

Series [3] in a line: Stability under grinding condition (ball mill, XRPD). Particulars: automatic ball mill, grinding 5, 10, 15, and 30 min. The procedure:
An appropriate amount of powders of crystalline form A of the free base, crystalline form I of the tartrate salt and crystalline form III of the tartrate salt were weighed and evenly spread in an agate mortar. Agate beads were added. To simulate the grinding conditions in a formulation process, the vibration frequency of the automatic ball mill was set at 25S-1, and the grinding was carried out for 5, 10, 15, and 30 min, respectively. Then samples were taken for XRPD to investigate the stability of the crystalline form under grinding conditions. For details of patterns, see FIGS. 27-29.

A short description of series [4]: Accelerated stability test: influence factor test and accelerated test, solid XRPD. Particulars: for Stability of crystalline form, summary in words: high temperature, high humidity, strong light and accelerated test conditions. The procedure: According to the stability test requirements for the raw drug in the fourth part of the 2015 edition of the “Chinese Pharmacopoeia”, “Guiding Principles for the Stability Test of Raw Drugs and Preparations”, the influence factor test and the accelerated test were investigated on crystalline form.
High temperature test (T): The powder was placed in a suitable sealed glass bottle, and placed at 60° C. for 10 days. Samples were taken on the 5th and 10th day to detect the solid XRPD.
High humidity test (H): The powder was placed in an open constant temperature and humidity box, and placed at 25° C., 90%±5% RH for 10 days. Samples were taken on the 5th and 10th day and the solid XRPD was detected so as to investigate the moisture absorption and deliquescence performances.
Strong light irradiation test (L): The powder was placed in an open box equipped with a fluorescent lamp, and placed under the condition of an illumination of 4500±5001x for 10 days. Samples were taken on the 5th and 10th day to detect the solid XRPD.
Accelerated test (A): The powder was placed in an open constant temperature and humidity box, and placed at 40° C., 75%±5% RH for 10 days. Samples were taken on the 5th and 10th day to detect the solid XRPD.

A short description of series [5]: XRPD of the solid after the solubility test (crystal transformation). As to the method:
(§1) A certain amount of crystalline form A of free base of the compound of formula (I), crystalline form I of the tartrate salt, and crystalline form III of the tartrate salt were weighed and placed in a 5 mL sample bottle. Deionized water, pH 2.0 glycine-hydrochloric acid buffer solution, pH 4.5 Na2HPO4-citric acid buffer solution, and pH 6.8 Na2HPO4-citric acid buffer solution were added respectively (each 2 mL). The mixture was placed on a shaker at 25° C., shaken for 24 hours, and then filtered. The filtrate was tested for solubility by HPLC; and the solid was detected by XRPD to determine whether the crystalline form was transformed.

Series [6] is described as follows: Solubility test (shaker 25° C., 24 hours, filtrate by HPLC). Particulars: for solubility at 24 h: 25 °C, thermodynamic from solid. As to the method:
as §1
The chromatographic conditions were as follows: • Chromatographic column: Unitary C18 (5 μm, 100 A, 4.6×250 mm) • Mobile phase: Phase A was ammonium acetate with pH of 6.2, and phase B was acetonitrile, A: B=10:90. • Detection wavelength: 230 nm, Column temperature: 35° C. • Injection volume: 20 μL

Series [7] in a line: Water adsorption and desorption test (DVS). The note with it: for Moisture absorption: 25° C. The procedure: • 4. Gravimetric Dynamic Vapor Sorption Isotherm Plot (DVS)
Dynamic water adsorption instrument (DVS) was used to investigate the adsorption and desorption test of crystalline forms I and III of the tartrate salt at 25° C. in the range of 0-95% relative humidity, so as to determine hygroscopicity of various crystalline forms (For details, see FIGS. 4d and 5d).

Setting [8] is: Accelerated (40° C./75%), 5 days.
The mark [9] stands for this setting: Accelerated (40° C./75%), 10 days.
[10] abbreviates: High humidity (92.5% RH), 25° C., 5 days.
The mark [11] stands for this setting: High humidity (92.5% RH), 25° C., 10 days.
The mark [12] stands for this setting: High temperature (60° C.), 5 days.
[13] abbreviates: High temperature (60° C.), 10 days.
Setting [14] is: Strong light (4500 lx), 10 days.
[15] abbreviates: solid after solubility test in deionized water.
The mark [16] stands for this setting: Deionized water, 25° C., 24 hours.
Setting [17] is: pH 2.0 glycine-hydrochloric acid buffer solution, 25° C., 24 hours.
[18] abbreviates: pH 4.5 Na2HPO4-citric acid buffer solution, 25° C., 24 hours.
[19] abbreviates: pH 6.8 Na2HPO4-citric acid buffer solution, 25° C., 24 hours.
Setting [20] is: pH 6.8 buffered saline solution.

For the compound `COc1cc(C(=O)NC2CCN(C)CC2)c(F)cc1Nc1ncc(C(F)(F)F)c(Oc2cccc3c2C(=O)N(C)C3)n1`, the “Crystalline form after suspension competition” value in series [1] (Cyclohexane, 50° C.) was “Mixture”; in series [1] (Cyclohexane, room temperature), “Mixture”; in series [1] (Methyl tert-butyl ether, 50° C.), “Mixture”; in series [1] (Methyl tert-butyl ether, room temperature), “Mixture”.
With `COc1cc(C(=O)NC2CCN(C)CC2)c(F)cc1Nc1ncc(C(F)(F)F)c(Oc2cccc3c2C(=O)N(C)C3)n1` [Crystalline form A of the free base], in series [2], the “Stability of the crystalline form under pressure conditions (XRPD)” value (“Stability … under pressure conditions (XRPD)” below) is “stable”. The “Stability of the crystalline form under grinding conditions (XRPD)” value (“Stability … under grinding conditions (XRPD)” below) in series [3] is listed as “become amorphous”. Further, the “Stability of crystalline form (XRPD)” value in series [4] (setting [8]), in series [4] (setting [9]), in series [4] (setting [10]), in series [4] (setting [11]), in series [4] (setting [12]) and in series [4] (setting [13]) was “Consistent” each time. The “Stability of crystalline form (XRPD)” value in series [4] (Strong light (4500 lx), 5 days) is given as “Consistent”; in series [4] (setting [14]), “Consistent”. Further, the “Stability of crystalline form, summary in words” value (“Stability … in words” below) in series [4] was “stable under above test conditions without crystal transformation”. In addition, the “Crystal transformation as detected by XRPD” value in series [5] (setting [15]) and in series [5] (solid after solubility test in pH 6.8 buffered saline solution) was “no crystal transformation” in each case. Also, the Solubility (usually the concentration that dissolves in the medium under given conditions) in series [6] (setting [16]) was 33 µg/mL (≈ 0.0561 mM); in series [6] (setting [17]), >10000 µg/mL; in series [6] (setting [18]), >10000 µg/mL; in series [6] (setting [19]) it was 1060 µg/mL (≈ 1.8 mM). For the same compound, the “Solubility compared with the amorphous form of the free base” value in series [6] (setting [20]) is “significantly improved”.
For `COc1cc(C(=O)NC2CCN(C)CC2)c(F)cc1Nc1ncc(C(F)(F)F)c(Oc2cccc3c2C(=O)N(C)C3)n1` [Crystalline form I of the tartrate salt], the “Stability … under pressure conditions (XRPD)” value in series [2] is on record as “stable”. Further, the “Stability … under grinding conditions (XRPD)” value in series [3] was “only reduced in the degree of crystallinity”. The “Relative stability of the crystalline form in suspension competition” value in series [1] (conventional solvents except methyl tert-butyl ether and cyclohexane, room temperature and 50° C.) is reported as “stable crystalline form”. The “Stability of crystalline form (XRPD)” value in series [4] (setting [8]), in series [4] (setting [9]), in series [4] (setting [10]), in series [4] (setting [11]), in series [4] (setting [12]) and in series [4] (setting [13]) was “Consistent” in each case. Besides, the “Stability of crystalline form (XRPD)” value is on record as “Consistent” in series [4] (Strong light (4500 lx), 5 days) and “Consistent” in series [4] (setting [14]). The “Stability … in words” value in series [4] is “stable under above test conditions without crystal transformation”. Moreover, the Moisture absorption was determined as 0.08% in series [7] (from 90% to 95% RH) and 0.33% in series [7] (humidity range of 40-80% RH). Besides, in series [7] (increase in relative humidity from about 0 to about 95%), the “Weight gain (DVS)” value is “about 1%”. Besides, the “Crystal transformation as detected by XRPD” value in series [5] (setting [15]) is recorded as “no crystal transformation”. In addition, the Solubility in series [6] (setting [16]) is 2590 µg/mL; in series [6] (setting [17]), >10000 µg/mL; in series [6] (setting [18]) it was 5200 µg/mL; in series [6] (setting [19]), >10000 µg/mL. For the same compound, the “Solubility compared with the amorphous form of the free base” value in series [6] (deionized water) and in series [6] (setting [20]) was “significantly improved” throughout.
Take `COc1cc(C(=O)NC2CCN(C)CC2)c(F)cc1Nc1ncc(C(F)(F)F)c(Oc2cccc3c2C(=O)N(C)C3)n1` [Amorphous form of the free base]: the Solubility came out at 1070 µg/mL (≈ 1.82 mM) in series [6] (setting [16]) and 50 µg/mL (≈ 0.085 mM) in series [6] (setting [19]). Moreover, the solubility (usually the concentration that dissolves in the medium under given conditions) at 24 h was 8500 µg/mL (≈ 14.4 mM) in series [6] (Na2HPO4-citric acid buffer, pH 4.5, aqueous buffer, pH 4.5 Na2HPO4-citric acid buffer solution, 24 hours) and > 10000 µg/mL in series [6] (glycine-hydrochloric acid buffer, pH 2, aqueous buffer, pH 2.0 glycine-hydrochloric acid buffer solution, 24 hours).
For `COc1cc(C(=O)NC2CCN(C)CC2)c(F)cc1Nc1ncc(C(F)(F)F)c(Oc2cccc3c2C(=O)N(C)C3)n1` [Crystalline form III of the tartrate salt], in series [2], the “Stability … under pressure conditions (XRPD)” value is listed as “stable”. For the same compound, the “Stability … under grinding conditions (XRPD)” value in series [3] was “become amorphous”. Moreover, the “Stability of crystalline form (XRPD)” value in series [4] (setting [8]) is “Consistent”; in series [4] (setting [9]), “Consistent”; in series [4] (setting [10]) it was “Consistent”; in series [4] (setting [11]), “Consistent,”; in series [4] (setting [12]), “Consistent”; in series [4] (setting [13]) it was “Consistent”. Further, the “Stability of crystalline form (XRPD)” value is “Consistent” in series [4] (Strong light (4500 lx), 5 days) and “Consistent” in series [4] (setting [14]). Moreover, the “Stability … in words” value in series [4] was “stable under above test conditions without crystal transformation”. The Crystallinity result in series [4] (high-humidity environment) is “reduced”. Further, the results for the Moisture absorption in series [7] (from 90% to 95% RH) and in series [7] (humidity range of 40-80% RH) were 18.1% and 0.37%, respectively. In addition, the Solubility is >10000 µg/mL in series [6] (setting [16]); “very good solubility” in series [6] (all the solvent systems); >10000 µg/mL in series [6] (setting [17]); >10000 µg/mL in series [6] (setting [18]); >10000 µg/mL in series [6] (setting [19]).
